According to patent publication US20040204481A1, “Activation of natural killer cells by adenosine A3 receptor agonists” (priority 2001, published 2004):
“Also recorded” adds a separate entry of the source.

Columns and labels:
[1] = tested on: human peripheral blood NK cells; test: 4 h 51Cr-release NK cytotoxicity assay, in vitro preincubation with agonist, K562 leukemia cells as targets; type: cell-based; details: for activity of natural killer cells following preincubation: 10 nM Cl-IB-MECA, 18 hours preincubation, K562 targets, E:T ratio 1:50, FIG. 1
Experimental: Murine splenocytes were derived from spleens of ICR mice and human mononuclear cells were separated by Ficoll-Hypaque gradient from heparinized blood of healthy normal volunteers.
(§1) The effect of Cl-IB-MECA on the activity of human peripheral blood NK cells was assayed by a standard 4 h ^51Cr-release assay using K562 leukemia cells as targets. Splenocytes or human mononuclear cells were cultured at a concentration of 5×10^5 cells/well in 96 well round bottom plates, and used as the effector (E) cells. The cells were preincubated with 10 nM Cl-IB-MECA for 18 hours, then the agonist was washed out from the wells and the cells were re-suspended in RPMI containing 5% FCS. K562 cells were used as the targets (T) and were labeled with 100 μci of Na2[^51Cr]O4 at 37° C., for 1 hr.
(§2) After extensive washing to remove the excess ^51Cr, target cells (1×10^4) were re-suspended in RPMI and mixed with the effector cells at an E:T ratio of 1:50 in a total volume of 200 μl (triplicate assays). After 4 hours of incubation at 37° C. in 5% CO2, plates were centrifuged, and the supernatants were counted in a gamma counter (LKB).
(§3) NK cytotoxicity was calculated using the following equation (CPM: counts per minute): [formula]
(§4) CPM sample, CPM spontaneous and CPM maximal were determined by measuring the CPM of the supernatants of the target cells in the presence of […], the assay medium or in the presence of 1% triton, respectively. It should be noted that spontaneous release was below 10% of the maximal release throughout this experiment.

B-16 melanoma cells = test: Adoptive transfer of splenocytes to melanoma bearing mice, count of lung melanoma foci; type: in vivo; details: splenocytes from 6 μg/kg Cl-IB-MECA treated mice engrafted 4 days after B-16 inoculation; day 15; versus non-activated splenocytes or control; FIG. 4
Description: In another experiment, the capability of the “activated” splenocytes to act in vivo against melanoma cells was examined. The “non-activated” and “activated” splenocytes were engrafted to mice that were inoculated 4 days earlier with B-16 melanoma cells (2.5×10^5). As the control served mice that were inoculated with the B-16 melanoma cells however not engrafted with splenocytes. The mice were sacrificed on day 15 and their lungs were removed. The number of lung melanoma foci was counted, the results for which are depicted in FIG. 4.

NK cells = test: NK activity (51Cr assay) of splenocytes from B-16 melanoma bearing mice treated orally; type: in vivo, C57B1/6J mice; details: for NK activity of splenocytes versus vehicle control group: 15 days, B-16 melanoma inoculated mice, FIG. 3
Experimental: In a further study C57B1/6J mice were used as the model mice which will develop metastatic lung foci after 15 days. The C57B1/6J mice were inoculated intravenously with B-16 melanoma cells (2.5×10^5) and treated daily orally with 6 or 9 μg/kg body weight of Cl-IB-MECA (starting one day after tumor inoculation). After 15 days, the mice were sacrificed and spleens were removed.
Splenocytes were separated and tested for NK activity using the ^51Cr assay as described above. […] The splenocytes derived from the group treated with 6 μg/kg body weight of Cl-IB-MECA were designated as “activated” cells and those derived from the control group were designated as “non-activated” splenocytes.

murine NK cells = test: NK activity (51Cr assay) of splenocytes from ICR mice after oral administration; type: in vivo; details: FIG. 2; for NK activity of splenocytes derived from treated mice: 6 μg/kg orally for two consecutive days
Experimental: as §1, §2, §3, §4
ICR mice were orally administered for two consecutive days with 6 μg/kg body weight of Cl-IB-MECA. After 4, 11 and 18 days, mice were sacrificed and spleens were removed. Splenocytes were separated and tested for NK activity using the ^51Cr assay as described above.

| SMILES | effect of the A3 receptor antagonist on the stimulatory effect of Cl-IB-MECA on NK activity ([1]; MRS-1220 introduced with Cl-IB-MECA, FIG. 1) | development of lung metastatic foci (B-16 melanoma cells) | NK activity of splenocytes versus vehicle control group (NK cells; 6 μg/kg daily orally) | NK activity of splenocytes versus vehicle control group (NK cells; 9 μg/kg daily orally) | NK cell activity in splenocytes derived from treated melanoma bearing mice (NK cells; FIG. 3 legend, dose not stated there) | NK activity of splenocytes derived from treated mice (murine NK cells; after 4 days) | NK activity of splenocytes derived from treated mice (murine NK cells; after 11 days) | NK activity of splenocytes derived from treated mice (murine NK cells; following 18 days) | time of maximal activation of murine NK cells (murine NK cells; oral administration) [days] | activity of natural killer cells following preincubation [1] | activity of natural killer cells following preincubation ([1]; listed as CI-IB-MECA) |
| --- | --- | --- | --- | --- | --- | --- | --- | --- | --- | --- | --- |
| O=C(Cc1ccccc1)Nc1nc2ccc(Cl)cc2c2nc(-c3ccco3)nn12 [MRS-1220, 9-chloro-2-(2-furanyl)-5-[(phenylacetyl)amino] [1,2,4,] -triazolo[1,5-c] quinazoline] | reversed the stimulatory effect; also recorded: abolished the stimulatory effect |  |  |  |  |  |  |  |  |  |  |
| CNC(=O)[C@H]1O[C@@H](n2cnc3c(NCc4cccc(I)c4)nc(Cl)nc32)[C@H](O)[C@@H]1O [Cl-IB-MECA, 2-chloro-N^6-(3-iodobenzyl)-adenosine-5′-N-methyl-uronamide] |  | decreased number of lung foci | marked increase | marked increase | increased NK cell activity | marked increase | high activity was still observed | only slight increase | 4 | potentiation | significant dose dependent increase |
